The record followed here is patent publication US20230159453A1 (COCRYSTAL PHARMA, INC., priority 2020, published 2023).

The test deals with SARS2 protease (Severe acute respiratory syndrome coronavirus 2, UniProt P0DTD1). Briefly: SARS-CoV-2 protease inhibition assay (SARS2 FRET protease assay). In kind it is biochemical. The settings on record: SARS-CoV-2 protease 25 nM, FRET, peptide substrate 1.3 μM, 30 minutes at 30° C., compounds 20 μM to 1.0 nM; read-out: IC50.

Molecules are shown by their SMILES.

In general, IC50 refers to the concentration at which inhibition is half-maximal.

In the case of `CC(C)C[C@H](NC(=O)OC1CCCC1Cc1cccc(Cl)c1)C(=O)N[C@@H](C[C@@H]1CCNC1=O)C(=O)C(=O)NC1CC1` (stereo partly drawn) [Compound C196, 2-(3-Chlorobenzyl)cyclopentyl ((S)-1-(((S)-4-(cyclopropylamino)-3,4-dioxo-1-((S)-2-oxopyrrolidin-3-yl)butan-2-yl)amino)-4-methyl-1-oxopentan-2-yl)carbamate], the IC50 came out at 108 nM.

`O=C(N[C@@H](CC1CCCCC1)C(=O)N[C@@H](CC1CC2(CCCCC2)NC1=O)C(=O)C(=O)N1CCCC1)c1cc2ccccc2[nH]1` (stereo partly drawn) [Compound C171, N-((2S)-3-cyclohexyl-1-((3,4-dioxo-1-(2-oxo-1-azaspiro[4.5]decan-3-yl)-4-(pyrrolidin-1-yl)butan-2-yl)amino)-1-oxopropan-2-yl)-1H-indole-2-carboxamide]: the half-inhibitory concentration (IC50) was 11000 nM.

As for `CCN1CCN(C(=O)C(=O)[C@H](C[C@@H]2CCNC2=O)NC(=O)[C@H](CC(C)C)NC(=O)OC(c2ccccc2)C(C)(C)c2cccc(Cl)c2)CC1` (stereo partly shown) [Compound C287], the IC50 was above 20000 nM.

Take `CC(C)C[C@H](NC(=O)OC(c1ccccc1)C(C)(C)c1cccc(Cl)c1)C(=O)N[C@@H](C[C@@H]1CCNC1=O)C(=O)CCl` (stereo partly drawn) [Compound C209, 2-(3-Chlorophenyl)-2-methyl-1-phenylpropyl ((S)-1-(((S)-4-chloro-3-oxo-1-((S)-2-oxopyrrolidin-3-yl)butan-2-yl)amino)-4-methyl-1-oxopentan-2-yl)carbamate]: the IC50 worked out at 1870 nM.

On to `CCOP(=O)(OCC)C(O)[C@H](CCC(=O)N1CCOc2ccc(Cl)cc2C1)NC(=O)[C@H](CC1CCCCC1)NC(=O)OCc1cccc(Cl)c1` (stereo partly drawn) [Compound C9, 3-Chlorobenzyl ((2S)-1-(((2S)-5-(7-chloro-2,3-dihydrobenzo[f][1,4]oxazepin-4(5H)-yl)-1-(diethoxyphosphoryl)-1-hydroxy-5-oxopentan-2-yl)amino)-3-cyclohexyl-1-oxopropan-2-yl)carbamate], for which the 50% inhibitory concentration (IC50) is above 200000 nM.

As for `CC(C)C(OC(=O)N[C@@H](CC1CCCCC1)C(=O)N[C@@H](C[C@@H]1CCNC1=O)C(=O)C(N)=O)c1ccccc1` (stereo partly drawn) [Compound C216, 2-Methyl-1-phenylpropyl ((S)-1-(((S)-4-amino-3,4-dioxo-1-((S)-2-oxopyrrolidin-3-yl)butan-2-yl)amino)-3-cyclohexyl-1-oxopropan-2-yl)carbamate], the IC50 is 3100 nM.

As to `CC(C)(C)C(=O)N1CCC2(CC1)CC(CC(NC(=O)[C@H](CC1CCCCC1)NC(=O)OCc1cccc(Cl)c1)C(=O)C(=O)NC1CC1)C(=O)N2` (stereo partly drawn) [Compound C188, 3-Chlorobenzyl ((2S)-3-cyclohexyl-1-((4-(cyclopropylamino)-3,4-dioxo-1-(2-oxo-8-pivaloyl-1,8-diazaspiro[4.5]decan-3-yl)butan-2-yl)amino)-1-oxopropan-2-yl)carbamate], the IC50 came to 1890 nM.

Take `CC(C)C[C@H](NC(=O)OC1CCN(C(=O)OC(C)(C)C)c2ccccc21)C(=O)N[C@@H](C[C@@H]1CCNC1=O)C(=O)C(=O)NCc1ccccn1` (stereo partly drawn) [Compound C86, Tert-butyl 4-((((S)-1-(((S)-3,4-dioxo-1-((S)-2-oxopyrrolidin-3-yl)-4-((pyridin-2-ylmethyl)amino)butan-2-yl)amino)-4-methyl-1-oxopentan-2-yl)carbamoyl)oxy)-3,4-dihydroquinoline-1(2H)-carboxylate]: the IC50 was 900 nM.

For the compound `CC(C)C[C@H](NC(=O)OC1(Cc2cccc(OCc3ccccc3)c2)CC1)C(=O)N[C@H](C=O)C[C@@H]1CCNC1=O` [Compound C60, 1-(3-(Benzyloxy)benzyl)cyclopropyl ((S)-4-methyl-1-oxo-1-(((S)-1-oxo-3-((S)-2-oxopyrrolidin-3-yl)propan-2-yl)amino)pentan-2-yl)carbamate], the 50% inhibitory concentration (IC50) was determined as 600 nM.

As to `CC(C)(C)C(OC(=O)N[C@@H](CC1CCCCC1)C(=O)N[C@@H](C[C@@H]1CCNC1=O)C(=O)C(N)=O)c1ccccc1` (stereo partly drawn) [Compound C231, 2,2-Dimethyl-1-phenylpropyl ((S)-1-(((S)-4-amino-3,4-dioxo-1-((S)-2-oxopyrrolidin-3-yl)butan-2-yl)amino)-3-cyclohexyl-1-oxopropan-2-yl) carbamate], the 50% inhibitory concentration (IC50) amounted to 1800 nM.

As to `CC(C)C[C@H](NC(=O)OC(Cc1ccccc1)C(C)C)C(=O)N[C@H](C=O)C[C@@H]1CCNC1=O` (stereo partly drawn) [Compound C230, 3-Methyl-1-phenylbutan-2-yl ((S)-4-methyl-1-oxo-1-(((S)-1-oxo-3-((S)-2-oxopyrrolidin-3-yl)propan-2-yl)amino)pentan-2-yl)carbamate], the IC50 was 70 nM.

Take `CC(C)C[C@H](NC(=O)OC(C)Cc1ccccc1)C(=O)N[C@@H](C[C@@H]1CCNC1=O)C(O)S(=O)(=O)O` (stereo partly drawn) [Compound C50, (2S)-1-Hydroxy-2-((2S)-4-methyl-2-((((1-phenylpropan-2-yl)oxy)carbonyl)amino)pentanamido)-3-((S)-2-oxopyrrolidin-3-yl)propane-1-sulfonate]: the concentration for half-maximal inhibition (IC50) came to 119 nM.

For the compound `CCOP(=O)(OCC)C(O)[C@H](CCC(=O)N1CCN(C(=O)OC(C)(C)C)C(c2ccccc2)C1)NC(=O)[C@H](CC1CCCCC1)NC(=O)OCc1cccc(Cl)c1` (stereo partly drawn) [Compound C1, tert-butyl 4-((4S)-4-((S)-2-((((3-chlorobenzyl)oxy)carbonyl)amino)-3-cyclohexylpropanamido)-5-(diethoxyphosphoryl)-5-hydroxypentanoyl)-2-phenylpiperazine-1-carboxylate], the IC50 is above 200000 nM.

For `CC(C)C[C@H](NC(=O)OC(c1ccc(Cl)cc1)C(C)(C)c1cccc(Cl)c1)C(=O)N[C@H](C=O)C[C@@H]1CCNC1=O` (stereo partly shown) [Compound C246], the IC50 is 520 nM.

For the compound `CC(C)(c1cccc(Cl)c1)C(OC(=O)N[C@@H](CC1CCCCC1)C(=O)N[C@@H](C[C@@H]1CCNC1=O)C(=O)C(=O)NC1CC1)c1ccccc1` (stereo partly drawn) [Compound C148, 2-(3-Chlorophenyl)-2-methyl-1-phenylpropyl ((S)-3-cyclohexyl-1-(((S)-4-(cyclopropylamino)-3,4-dioxo-1-((S)-2-oxopyrrolidin-3-yl)butan-2-yl)amino)-1-oxopropan-2-yl)carbamate], the 50% inhibitory concentration (IC50) was determined as 973 nM.

As for `COc1cccc(CC2(OC(=O)N[C@@H](CC(C)C)C(=O)N[C@H](C=O)C[C@@H]3CCNC3=O)CC2)c1` [Compound C42, 1-(3-Methoxybenzyl)cyclopropyl ((S)-4-methyl-1-oxo-1-(((S)-1-oxo-3-((S)-2-oxopyrrolidin-3-yl)propan-2-yl)amino)pentan-2-yl)carbamate], the 50% inhibitory concentration (IC50) is 356 nM.

With `COc1cccc2[nH]c(C(=O)N[C@@H](CC3CCCCC3)C(=O)NC(C=O)CC3CC4(CCOCC4)NC3=O)cc12` (stereo partly drawn) [Compound C179, N-((2S)-3-cyclohexyl-1-oxo-1-((1-oxo-3-(2-oxo-8-oxa-1-azaspiro[4.5]decan-3-yl)propan-2-yl)amino)propan-2-yl)-4-methoxy-1H-indole-2-carboxamide], the IC50 is 0.015 nM.

In the case of `CCCC1CCC(OC(=O)N[C@@H](CC(C)C)C(=O)NC(C=O)CC2CC3(CCN(C(C)=O)CC3)NC2=O)CC1` (stereo partly drawn) [Compound C77, 4-Propylcyclohexyl ((2S)-1-((1-(8-acetyl-2-oxo-1,8-diazaspiro[4.5]decan-3-yl)-3-oxopropan-2-yl)amino)-4-methyl-1-oxopentan-2-yl)carbamate], the half-inhibitory concentration (IC50) is 600 nM.

In the case of `O=CC(CC1CC(Cc2ccccc2)NC1=O)NC(=O)[C@H](CC1CCCCC1)NC(=O)OCc1cccc(Cl)c1` (stereo partly drawn) [Compound C52, 3-Chlorobenzyl ((2S)-1-((1-(5-benzyl-2-oxopyrrolidin-3-yl)-3-oxopropan-2-yl)amino)-3-cyclohexyl-1-oxopropan-2-yl)carbamate], the IC50 stood at 500 nM.

As to `CC(C)(c1cccc(Cl)c1)[C@H](OC(=O)N[C@@H](CC1CCCCC1)C(=O)N[C@@H](C[C@@H]1CCNC1=O)C(=O)C(=O)NC1CC1)c1cccc(F)c1` [Compound C185, (R)-2-(3-chlorophenyl)-1-(3-fluorophenyl)-2-methylpropyl ((S)-3-cyclohexyl-1-(((S)-4-(cyclopropylamino)-3,4-dioxo-1-((S)-2-oxopyrrolidin-3-yl)butan-2-yl)amino)-1-oxopropan-2-yl)carbamate], the IC50 was determined as 143 nM.

On to `CCOP(=O)(OCC)C(O)C(CC1CC2(CCN(C(C)=O)CC2)NC1=O)NC(=O)[C@H](Cc1cccc(F)c1)NC(=O)OCc1cccc(Cl)c1` (stereo partly drawn) [Compound C82, 3-Chlorobenzyl ((2S)-1-((3-(8-acetyl-2-oxo-1,8-diazaspiro[4.5]decan-3-yl)-1-(diethoxyphosphoryl)-1-hydroxypropan-2-yl)amino)-3-(3-fluorophenyl)-1-oxopropan-2-yl)carbamate], for which the IC50 is 4400 nM.

`CC1(C)CC(CC(NC(=O)[C@H](CC2CCCCC2)NC(=O)OCc2cccc(Cl)c2)C(=O)C(=O)NC2CC2)C(=O)N1` (stereo partly drawn) [Compound C244, 3-Chlorobenzyl ((2S)-3-cyclohexyl-1-((4-(cyclopropylamino)-1-(5,5-dimethyl-2-oxopyrrolidin-3-yl)-3,4-dioxobutan-2-yl)amino)-1-oxopropan-2-yl) carbamate]: the IC50 is 1730 nM.

Take `CCOP(=O)(OCC)C(O)C(CC1CC2(CCN(C(C)=O)CC2)NC1=O)NC(=O)C(CC(C)C)NC(=O)OCc1cccc(Cl)c1` (stereo in doubt) [Compound C69, 3-Chlorobenzyl ((2R)-1-((3-(8-acetyl-2-oxo-1,8-diazaspiro[4.5]decan-3-yl)-1-(diethoxyphosphoryl)-1-hydroxypropan-2-yl)amino)-4-methyl-1-oxopentan-2-yl)carbamate]: the IC50 came to 26800 nM.

`O=C[C@H](C[C@@H]1CCNC1=O)NC(=O)[C@H](CC1CCCCC1)NC(=O)OC(Cc1cccc(Cl)c1)c1ccccc1` (stereo partly drawn) [Compound C109, 2-(3-Chlorophenyl)-1-phenylethyl ((S)-3-cyclohexyl-1-oxo-1-(((S)-1-oxo-3-((S)-2-oxopyrrolidin-3-yl)propan-2-yl)amino)propan-2-yl)carbamate]: the IC50 turned out to be 2 nM.

Take `O=C(N[C@@H](CC1CCCCC1)C(=O)N[C@@H](CC1CC2(CCCCC2)NC1=O)C(=O)CCl)OCc1cccc(Cl)c1` (stereo partly drawn) [Compound C197, 3-Chlorobenzyl ((2S)-1-(((2S)-4-chloro-3-oxo-1-(2-oxo-1-azaspiro[4.5]decan-3-yl)butan-2-yl)amino)-3-cyclohexyl-1-oxopropan-2-yl)carbamate]: the half-inhibitory concentration (IC50) turned out to be 620 nM.
